# According to patent publication US20010021697A1, “METHODS AND COMPOSITIONS FOR THE TREATMENT OF MAMMALIAN INFECTIONS EMPLOYING MEDICAMENTS COMPRISING HYMENOPTERA VENOM, PROTEINAGEOUS OR POLYPEPTIDE COMPONENTS THEREOF, OR ANALOGUES OF SUCH PROTEINACEOUS OR POLYPEPTIDE COMPONENTS” (priority 1987, published 2001):
# Values joined by “and” are separate entries in the source; they are usually repeats but may differ in a detail not shown here. Equal values may be shown once.
# Columns and labels:
# Type in all cases: cell-based
# [1] = system: kanamycin resistant S. aureus; experiment: Checkerboard titration assay for synergy of honeybee venom with antibiotics (OD660 growth curves)
# Escherichia coli = experiment: Growth curves with polymyxin B and bumble bee, yellowjacket or baldfaced hornet venom; conditions: for optical density, AVERAGE: AVERAGE line; for optical density: single replicates
# Procedure: The activity of hymenoptera venom other than HBV was also determined for bumblee venom, yellow jacket venom and bald faced hornet venom, as shown below in Tables 8, 9
# [2] = system: E. Coli strain No. G1108E; experiment: Checkerboard titration synergy assay of natural melittin and analogue #6 with polymyxin B
# E. coli G1108E = experiment: Checkerboard titration synergy assay of melittin analogues with polymyxin B; conditions: polymyxin B 6 units/ml, peptide 5 ug/ml, n = 6
# [3] = 0 hours after innoculation, YJ 5 ug/ml, BF 5 ug/ml, Pol B 3.125 U/ml alone, Pol B 5 U/ml in the combinations
# [4] = 0 hours after innoculation, doses of what is present: Pol B 3.125 Units/ml, BB Venom 5 ug/ml
# [5] = 0 hours after innoculation, doses of what is present: Pol B 6.25 Units/ml, BB Venom 20 ug/ml
# [6] = 2 hours after innoculation, YJ 5 ug/ml, BF 5 ug/ml, Pol B 3.125 U/ml alone, Pol B 5 U/ml in the combinations
# [7] = 2 hours after innoculation, doses of what is present: Pol B 3.125 Units/ml, BB Venom 5 ug/ml
# [8] = 2 hours after innoculation, doses of what is present: Pol B 6.25 Units/ml, BB Venom 20 ug/ml
# [9] = 4 hours after innoculation, YJ 5 ug/ml, BF 5 ug/ml, Pol B 3.125 U/ml alone, Pol B 5 U/ml in the combinations
# [10] = 4 hours after innoculation, doses of what is present: Pol B 3.125 Units/ml, BB Venom 5 ug/ml
# [11] = 4 hours after innoculation, doses of what is present: Pol B 6.25 Units/ml, BB Venom 20 ug/ml
# [12] = 6 hours after innoculation, YJ 5 ug/ml, BF 5 ug/ml, Pol B 3.125 U/ml alone, Pol B 5 U/ml in the combinations
# [13] = 6 hours after innoculation, doses of what is present: Pol B 3.125 Units/ml, BB Venom 5 ug/ml
# [14] = 8 hours after innoculation, YJ 5 ug/ml, BF 5 ug/ml, Pol B 3.125 U/ml alone, Pol B 5 U/ml in the combinations
# [15] = 8 hours after innoculation, doses of what is present: Pol B 3.125 Units/ml, BB Venom 5 ug/ml
# [16] = 8 hours after innoculation, doses of what is present: Pol B 6.25 Units/ml, BB Venom 20 ug/ml
# [17] = 12 hours after innoculation, YJ 5 ug/ml, BF 5 ug/ml, Pol B 3.125 U/ml alone, Pol B 5 U/ml in the combinations
# [18] = 12 hours after innoculation, doses of what is present: Pol B 3.125 Units/ml, BB Venom 5 ug/ml
# [19] = 12 hours after innoculation, doses of what is present: Pol B 6.25 Units/ml, BB Venom 20 ug/ml
substance,measurement,setting,value
Polymyxin B,MEAN A660,"[1]; POLY B = 50, HBV = 0, T4",0.208
same,MEAN A660,"[1]; POLY B = 50, HBV = 0, T6",0.376
same,MEAN A660,"[1]; POLY B = 50, HBV = 0, T8",0.567
same,MEAN A660,"[1]; POLY B = 50, HBV = 0, T12",0.841
same,MEAN A660,"[1]; POLY B = 50, HBV = 0, T24",0.968
same,MEAN A660,"[1]; POLY B = 100, HBV = 0, T0",0.009
same,MEAN A660,"[1]; POLY B = 100, HBV = 0, T2",0.068
same,MEAN A660,"[1]; POLY B = 100, HBV = 0, T4",0.243
same,MEAN A660,"[1]; POLY B = 100, HBV = 0, T6",0.629
same,MEAN A660,"[1]; POLY B = 100, HBV = 0, T8",0.835
same,MEAN A660,"[1]; POLY B = 100, HBV = 0, T12",1.008
same,MEAN A660,"[1]; POLY B = 100, HBV = 0, T24",1.048
same,"optical density, AVERAGE",Escherichia coli; [3],.038
same,optical density,Escherichia coli; [3],.038
same,"optical density, AVERAGE",Escherichia coli; [4],.030
same,optical density,Escherichia coli; [4],.030
same,"optical density, AVERAGE",Escherichia coli; [5],.030
same,optical density,Escherichia coli; [5],.030
same,"optical density, AVERAGE",Escherichia coli; [6],.480
same,optical density,Escherichia coli; [6],.477 and .482
same,"optical density, AVERAGE",Escherichia coli; [7],.649
same,optical density,Escherichia coli; [7],.654 and .642 and .652
same,"optical density, AVERAGE",Escherichia coli; [8],.023
same,optical density,Escherichia coli; [8],.022 (2×) and .024
same,"optical density, AVERAGE",Escherichia coli; [9],1.03
same,optical density,Escherichia coli; [9],1.03
same,"optical density, AVERAGE",Escherichia coli; [10],1.02
same,optical density,Escherichia coli; [10],1.03 and 1.02 (2×)
same,"optical density, AVERAGE",Escherichia coli; [11],.251
same,optical density,Escherichia coli; [11],.102 and .472 and .180
same,"optical density, AVERAGE",Escherichia coli; [12],1.07
same,optical density,Escherichia coli; [12],1.07
same,"optical density, AVERAGE",Escherichia coli; [13],1.03
same,optical density,Escherichia coli; [13],1.03
same,"optical density, AVERAGE","Escherichia coli; 6 hours after innoculation, doses of what is present: Pol B 6.25 Units/ml, BB Venom 20 ug/ml",.827
same,"optical density, AVERAGE",Escherichia coli; [14],1.08
same,optical density,Escherichia coli; [14],1.08
same,"optical density, AVERAGE",Escherichia coli; [15],1.04
same,optical density,Escherichia coli; [15],1.04
same,"optical density, AVERAGE",Escherichia coli; [16],.960
same,optical density,Escherichia coli; [16],.960 and .950 and .970
same,"optical density, AVERAGE",Escherichia coli; [17],1.14
same,optical density,Escherichia coli; [17],1.14
same,"optical density, AVERAGE",Escherichia coli; [18],1.13
same,optical density,Escherichia coli; [18],1.12 and 1.14 (2×)
same,"optical density, AVERAGE",Escherichia coli; [19],1.03
same,optical density,Escherichia coli; [19],1.03 (2×) and 1.04
same,Average optical densities (OD660),"[2]; 0 hrs, doses of what is present: Polymyxin B 3 units, peptide 5 ug",.013
same,Average optical densities (OD660),"[2]; 0 hrs, doses of what is present: Polymyxin B 6 units, peptide 10 ug",.013
same,Average optical densities (OD660),"[2]; 2 hrs, doses of what is present: Polymyxin B 3 units, peptide 5 ug",.072
same,Average optical densities (OD660),"[2]; 2 hrs, doses of what is present: Polymyxin B 6 units, peptide 10 ug",.072
same,Average optical densities (OD660),"[2]; 4 hrs, doses of what is present: Polymyxin B 3 units, peptide 5 ug",.808
same,Average optical densities (OD660),"[2]; 4 hrs, doses of what is present: Polymyxin B 6 units, peptide 10 ug",.423
same,Average optical densities (OD660),"[2]; 6 hrs, doses of what is present: Polymyxin B 3 units, peptide 5 ug",1.06
same,Average optical densities (OD660),"[2]; 6 hrs, doses of what is present: Polymyxin B 6 units, peptide 10 ug",.840
same,Average optical densities (OD660),"[2]; 8 hrs, doses of what is present: Polymyxin B 3 units, peptide 5 ug",1.08
same,Average optical densities (OD660),"[2]; 8 hrs, doses of what is present: Polymyxin B 6 units, peptide 10 ug",.911
same,Average optical densities (OD660),"[2]; 12 hrs, doses of what is present: Polymyxin B 3 units, peptide 5 ug",1.15
same,Average optical densities (OD660),"[2]; 12 hrs, doses of what is present: Polymyxin B 6 units, peptide 10 ug",.930
same,"Optical densities (OD660), mean",E. coli G1108E; 0 hours after culture inoculation,.007
same,"Optical densities (OD660), mean",E. coli G1108E; 2 hours after culture inoculation,.088
same,"Optical densities (OD660), mean",E. coli G1108E; 4 hours after culture inoculation,.470
same,"Optical densities (OD660), mean",E. coli G1108E; 6 hours after culture inoculation,.926
same,"Optical densities (OD660), mean",E. coli G1108E; 8 hours after culture inoculation,1.02
same,"Optical densities (OD660), mean",E. coli G1108E; 10 hours after culture inoculation,1.04
same,"Optical densities (OD660), mean",E. coli G1108E; 12 hours after culture inoculation,1.06
